Source: US8835462B2, “Macrocyclic picolinamides as fungicides” (Dow AgroSciences LLC, priority 2012, dated 2014)
Like-named read-outs stand apart in the source and are kept apart here.

Experiments:
[1] = system: Mycosphaerella graminicola; Anamorph: Septoria tritici; experiment: Leaf blotch of wheat (SEPTTR) fungicidal activity on wheat seedlings; format: in vivo; conditions: Zymoseptoria tritici
Description: Evaluation of Fungicidal Activity: Leaf Blotch of Wheat (Mycosphaerella Graminicola; Anamorph: Septoria tritici; Bayer Code […]) Technical grades of materials were dissolved in acetone, which were then mixed with nine volumes of water containing 110 ppm Triton X-100. The fungicide solutions were applied onto wheat seedlings using an automated booth sprayer to run-off. All sprayed plants were allowed to air dry prior to further handling. Wheat plants (variety Yuma) were grown from seed in a greenhouse in 50% mineral soil/50% soil-less Metro mix until the first leaf was fully emerged, with 7-10 seedlings per pot. These plants were inoculated with an aqueous spore suspension of Septoria tritici either prior to or after fungicide treatments. After inoculation the plants were kept in 100% relative humidity (one day in a dark dew chamber followed by two to three days in a lighted dew chamber at 20° C.) to permit spores to germinate and infect the leaf. The plants were then transferred to a greenhouse set at 20° C. for disease to develop. When disease symptoms were fully expressed on the 1st leaves of untreated plants, infection levels were assessed on a scale of 0 to 100 percent disease severity. Percent disease control was calculated using the ratio of disease severity on treated plants relative to untreated plants.

Puccinia triticina [2] = experiment: Wheat brown rust (PUCCRT) fungicidal activity on wheat seedlings; format: in vivo
Description: Technical grades of materials were dissolved in acetone, which were then mixed with nine volumes of water containing 110 ppm Triton X-100. The fungicide solutions were applied onto wheat seedlings using an automated booth sprayer to run-off. All sprayed plants were allowed to air dry prior to further handling. Wheat plants (variety Yuma) were grown from seed in a greenhouse in 50% mineral soil/50% soil-less Metro mix until the first leaf was fully emerged, with 7-10 seedlings per pot. These plants were inoculated with an aqueous spore suspension of Septoria tritici either prior to or after fungicide treatments. After inoculation the plants were kept in 100% relative humidity (one day in a dark dew chamber followed by two to three days in a lighted dew chamber at 20° C.) to permit spores to germinate and infect the leaf. The plants were then transferred to a greenhouse set at 20° C. for disease to develop. When disease symptoms were fully expressed on the 1st leaves of untreated plants, infection levels were assessed on a scale of 0 to 100 percent disease severity. Percent disease control was calculated using the ratio of disease severity on treated plants relative to untreated plants. Evaluation of Fungicidal Activity: Wheat Brown Rust (Puccinia triticina; Synonym: Puccinia recondita f. sp. tritici; Bayer Code PUCCRT) Wheat plants (variety Yuma) were grown from seed in a greenhouse in 50% mineral soil/50% soil-less Metro mix until the first leaf was fully emerged, with 7-10 seedlings per pot. These plants were inoculated with an aqueous spore suspension of Puccinia triticina either prior to or after fungicide treatments. After inoculation the plants were kept in a dark dew room at 22° C. with 100% relative humidity overnight to permit spores to germinate and infect the leaf. The plants were then transferred to a greenhouse set at 24° C. for disease to develop. Fungicide formulation, application and disease assessment followed the procedures as described in the Example A.

Puccinia triticina [3] = experiment: Fungicide mobility (dropline mobility test), wheat brown rust (PUCCRT); format: in vivo; conditions: 1 ug/leaf, disease-free zone as percent of distance from marked line to leaf tip; for Dropline Mobility Test PUCCRT 1 DPM: 1 Day Protectant Mobility; for Dropline Mobility Test PUCCRT 3 DCM: 3 Day Curative Mobility
Description: Evaluation of Fungicide Mobility: Wheat Brown Rust (Puccinia Triticina; Synonym: Puccinia recondita f. sp. Tritici; Bayer Code PUCCRT):
“Yuma” wheat seedlings were used in the test. One mg of compound was dissolved in 9 μl of EC blank (emulsifiable concentrate) and 500 μl of acetone. Acetone was then evaporated overnight by leaving the vial open in a fume hood. Two milliliters of water containing 110 ppm Triton X-100 was added to each vial to prepare application solutions. A […] drop of formulated material was applied to a marked line on the adaxial surface 5 cm from the leaf tip of the primary leaves. The primary leaves were kept in a horizontal position. Each treatment had 6 replicates. Plants were inoculated with PUCCRT 1-day after (1DPM) or 3-day prior to (3DCM) compound applications. When rust was fully expressed on primary leaves on control plants, the zone of treated leaves that was disease-free in the acropetal direction was measured with a ruler and converted to percent of the distance from marked line to leaf tip.

[4] = 24 h, 1 Day Protectant, read-out: Disease Control SEPTTR 1 DP
[5] = 72 h, 3 Day Curative, read-out: Disease Control SEPTTR 3 DC
[6] = 24 h, 1 Day Protectant, read-out: Disease Control PUCCRT 1 DP
[7] = 72 h, 3 Day Curative, read-out: Disease Control PUCCRT 3 DC

Row | melting point [°C] | SMILES | pest or weed control at 100 ppm [1, 4] [%] | pest or weed control at 100 ppm [1, 5] [%] | pest or weed control at 100 ppm (Puccinia triticina [2]; [6]) [%] | pest or weed control at 100 ppm (Puccinia triticina [2]; [7]) [%] | Dropline Mobility Test PUCCRT 1 DPM (Puccinia triticina [3]) | Dropline Mobility Test PUCCRT 3 DCM (Puccinia triticina [3])
1 | – | COc1ccnc(C(=O)N[C@H]2COC[C@H](Cc3ccccc3)[C@@H](OCCC(C)OC)[C@H](C)OC2=O)c1O (some centres unmarked) [Compound 45] | 80 to 100 | 80 to 100 | 80 to 100 | 80 to 100 | A (80-100) | A (80-100)
2 | 98 to 100 | CCCO[C@@H]1[C@@H](Cc2ccccc2)COC[C@H](N(C(=O)OC(C)(C)C)C(=O)OC(C)(C)C)C(=O)O[C@H]1C [Compound 68] | – | – | – | – | – | –
3 | – | COc1ccnc(C(=O)N[C@H]2COC[C@H](Cc3ccccc3)[C@@H](OCC(F)F)[C@H](C)OC2=O)c1O [Compound 43] | 80 to 100 | 80 to 100 | 80 to 100 | 80 to 100 | A (80-100) | B (More than 0-Less than 80)
4 | – | COc1ccnc(C(=O)N[C@H]2COC[C@H](Cc3ccccc3)[C@@H](OCCC(=O)N(C)C)[C@H](C)OC2=O)c1O [Compound 13] | 0 to 80 | 0 to 80 | – | 0 to 80 | – | –
5 | – | COC(=O)CCO[C@@H]1[C@@H](Cc2ccccc2)COC[C@H](NC(=O)c2nccc(OC)c2O)C(=O)O[C@H]1C [Compound 11] | 0 to 80 | 0 to 80 | 0 to 80 | 0 to 80 | – | –
6 | – | COCCCO[C@@H]1[C@@H](Cc2ccccc2)COC[C@H](NC(=O)c2nccc(OC)c2O)C(=O)O[C@H]1C [Compound 14] | 80 to 100 | 0 to 80 | 80 to 100 | 80 to 100 | – | –
7 | – | COC(=O)CCO[C@@H]1[C@@H](Cc2ccccc2)COC[C@H](NC(=O)c2nccc(OC)c2OCOC(C)=O)C(=O)O[C@H]1C [Compound 12] | 0 to 80 | 0 to 80 | 80 to 100 | 0 to 80 | – | –
8 | – | COc1ccnc(C(=O)N[C@H]2COC[C@H](Cc3ccccc3)[C@@H](Oc3ccccc3)[C@H](C)OC2=O)c1O [Compound 33] | 80 to 100 | 80 to 100 | 80 to 100 | 80 to 100 | B (More than 0-Less than 80) | –
9 | – | COc1ccnc(C(=O)N[C@H]2COC[C@H](Cc3ccccc3)[C@@H](OCCCc3ccccc3)[C@H](C)OC2=O)c1O [Compound 28] | 0 to 80 | 0 to 80 | 80 to 100 | 80 to 100 | B (More than 0-Less than 80) | –
10 | – | CCCC(C)O[C@@H]1[C@@H](Cc2ccccc2)COC[C@H](NC(=O)c2nccc(OC)c2OCOC(C)=O)C(=O)O[C@H]1C (some centres unmarked) [Compound 24] | 80 to 100 | 80 to 100 | 80 to 100 | 80 to 100 | B (More than 0-Less than 80) | B (More than 0-Less than 80)
11 | – | COc1ccnc(C(=O)N[C@H]2COC[C@H](Cc3ccccc3)[C@@H](OC(=O)C3CC3)[C@H](C)OC2=O)c1O [Compound 31] | 80 to 100 | 80 to 100 | 80 to 100 | 80 to 100 | B (More than 0-Less than 80) | B (More than 0-Less than 80)
12 | – | COc1ccnc(C(=O)N[C@H]2COC[C@H](Cc3ccccc3)[C@@H](OCCC(C)C)[C@H](C)OC2=O)c1OCOC(C)=O [Compound 42] | 80 to 100 | 80 to 100 | 80 to 100 | 80 to 100 | B (More than 0-Less than 80) | B (More than 0-Less than 80)
13 | – | COc1ccnc(C(=O)N[C@H]2COC[C@H](Cc3ccccc3)[C@@H](OC3CCCC3)[C@H](C)OC2=O)c1O [Compound 105] | 80 to 100 | 80 to 100 | 80 to 100 | 80 to 100 | – | –
14 | – | COc1ccnc(C(=O)N[C@H]2COC[C@H](Cc3ccccc3)[C@@H](OC3CCCCC3)[C@H](C)OC2=O)c1O [Compound 29] | 0 to 80 | 80 to 100 | 80 to 100 | 80 to 100 | B (More than 0-Less than 80) | B (More than 0-Less than 80)
15 | – | COC(=O)/C=C/O[C@@H]1[C@@H](Cc2ccccc2)COC[C@H](NC(=O)c2nccc(OC)c2O)C(=O)O[C@H]1C [Compound 27] | 0 to 80 | 0 to 80 | 80 to 100 | 0 to 80 | B (More than 0-Less than 80) | B (More than 0-Less than 80)
16 | – | COc1ccnc(C(=O)N[C@H]2COC[C@H](Cc3ccccc3)[C@@H](OCCC(C)C)[C@H](C)OC2=O)c1O [Compound 41] | 0 to 80 | 0 to 80 | 80 to 100 | 0 to 80 | B (More than 0-Less than 80) | B (More than 0-Less than 80)
17 | – | COc1ccnc(C(=O)N[C@H]2COC[C@H](Cc3ccccc3)[C@@H](OC/C=C/C(F)(F)F)[C@H](C)OC2=O)c1O [Compound 20] | 0 to 80 | 0 to 80 | 0 to 80 | 0 to 80 | B (More than 0-Less than 80) | –
18 | – | COc1ccnc(C(=O)N[C@H]2COC[C@H](Cc3ccccc3)[C@@H](OC/C=C/C(F)(F)F)[C@H](C)OC2=O)c1OCOC(C)=O [Compound 25] | 80 to 100 | 80 to 100 | 80 to 100 | 80 to 100 | B (More than 0-Less than 80) | –
19 | – | COc1ccnc(C(=O)N[C@H]2COC[C@H](Cc3ccccc3)[C@@H](OC3CCCCC3)[C@H](C)OC2=O)c1OCOC(C)=O [Compound 35] | 80 to 100 | 80 to 100 | 80 to 100 | 80 to 100 | B (More than 0-Less than 80) | –
20 | – | COc1ccnc(C(=O)N[C@H]2COC[C@H](Cc3ccccc3)[C@@H](OC(=O)c3ccccc3)[C@H](C)OC2=O)c1O [Compound 30] | 0 to 80 | 0 to 80 | 80 to 100 | 0 to 80 | B (More than 0-Less than 80) | –
21 | – | COc1ccnc(C(=O)N[C@H]2COC[C@H](Cc3ccccc3)[C@@H](OCCCC(F)(F)F)[C@H](C)OC2=O)c1O [Compound 18] | 80 to 100 | 80 to 100 | 80 to 100 | 80 to 100 | B (More than 0-Less than 80) | B (More than 0-Less than 80)
